Like-named read-outs stand apart in the source and are kept apart here.
What was measured:
S. aureus DSM1104 = assay: Bacteriostatic and bactericidal activity assay (Bioscreen growth curves, MBC on agar); assay type: cell-based, Staphylococcus aureus; details: for MIC90: read-out: Bacteriostatic activity MIC90; for Growth of S. aureus cells relative to growth control: at the lowest concentration where the biofilm formation was interrupted
Description: The assay was performed with each concentration tested in quadruplicates. The MIC was considered as the lowest concentration where the percentage of inhibition was higher than or equal to 90%. The minimum bactericidal concentration (MBC) of isolated compounds was also determined by transferring an aliquot of 2 µL from all concentrations tested onto nutrient agar (NA) plates, which were then incubated at 30 °C for 24 h. The MBC endpoint was defined as the lowest concentration of the compounds that killed microorganisms, where no visible growth of the microorganism tested was observed on the agar plates. The experimental procedures and the results are given in detail in Supporting Information File 1. […]
Bacteriostatic and bactericidal activity assay […]
aeruginosa PA14 were further evaluated for their bacteriostatic and bactericidal activit ies. The assay was performed in the Bioscreen 100 -well Honeycomb plate according to the protocol described by Yuyama et al. 13 where the MIC values were determined. The bacterial inoculum was prepared by growing S. aureus DSM1104 in Luria -Bertani broth (LB) for 24 h at 30 °C and then adjusting to 0.5 McFarland turbidity standard. The 0.5 McFarland bacterial suspension (296.25 µL) was transferred to the well containing 3.75 µL of each compound (20 mg/mL) and was subsequently two -fold diluted to give 8 concentrations ranging from 250 –1.95 µg/mL. Since compound 2 and the remaining five compounds could completely be dissolved in MeOH and dimethyl sulfoxide (DMSO), respectively, MeOH and DMSO were used as the solvent controls. The assay was performed with each concentration tested in quadruplicate. The bacterial growth was monitored on the Bioscreen -C automated growth curve analysis system (Oy Growth Curves AB Ltd, Helsinki, Finland) for 24 h with the optical density at 600 nm measured at 15 -min intervals. The MIC of each compound tested was read at 24 h of incubation and was considered as the lowest concentration where the percentage of inhibition was higher than or equal to 90%. Herein, the minimum bactericidal concentration (MBC) of isolated compounds was also determined by transferring an aliquot of 2 µL from all concentration tested onto Nutrient Agar (NA) plates which were then incubate d at 30 °C for 24 h. The MBC endpoint was defined as the lowest concentration of the compounds that kill microorganisms where no visible growth of the microorganism tested was observed on the agar plates.

[1] = test system: Pseudomonas aeruginosa PA14; assay: Anti-biofilm activity, microtiter dish biofilm formation assay; assay type: cell-based; details: lowest concentration preventing biofilm formation by at least 50%, 24 h, NA = No activity
Description: (§1) The isolated compounds were also tested for their ability to interfere in the biofilm formation of Staphylococcus aureus DSM1104 and Pseudomonas aeruginosa PA14 [51]. The biofilm inhibition assay was performed in 96-well microtiter plates using the microtiter dish biofilm formation assay described by O’Toole, with minor modifications, as outlined in our recent publications. The antibiofilm activity is expressed as MIC values, which is defined as the lowest concentration of substance that prevents biofilm formation of a target microorganism by at least 50%. […]
(§2) Anti-biofilm activity assay
(§3) The determination of the ability of isolated compounds to prevent biofilm formation of S. aureus DSM1104 (ATCC25923) and P. aeruginosa PA148 was performed using the microtiter dish biofilm formation assay described by O’Toole9 with minor modification provided in our recent publications 1, 6, 10–14. The biofilm forming strains were enriched overnight in CASO medium with and without 4% glucose for S. aureus and P. aeruginosa , respectively. After incubation at 37 °C under shaking condition, the overnight cultures were adjusted to equal the turbidity of 0.5 McFarland standard using the assay medium. The assay was carried out in 96 -well tissue cultured -treated microplates (TPP®, Germany) for S. aureus and non-treated plates (Falcon®MicroTestTM, USA) for P. aeruginosa , in which 10 μ L of each compound (0.5 mg/m L) in six replicates were mixed together with 140 μ L of bacterial suspension. Methanol and CASO medium with and without 4% glucose were used as negative controls and tetracycline (100 μg/m L) as positive control. Plates were covered with a sterile adhesive porous paper (Kisker Biotech GmbH, Steinfurt, Germany) and incubated at 37 °C for 24 h.
(§4) After incubation, ba cterial biofilms were stained with 0.1% crystal violet solution (Sigma -Aldrich) following the protocol of O’Toole .9 Then, the biofilm was subsequently quantified using a microplate reader at 550 nm. 12 In the current study, the antibiofilm activity was expr essed as MIC value which was defined as the lowest concentration of substance that prevents the biofilm formation of a target microorganism by at least 50%. […]

[2] = test system: Staphylococcus aureus DSM1104; assay: as above; assay type: cell-based; details: S. aureus DSM1104 (ATCC25923), lowest concentration preventing biofilm formation by at least 50%, 24 h, NA = No activity
Description: as §1, §2, §3, §4

[3] = S. aureus, minimum bactericidal concentration, no visible growth on NA plates, 30 °C, 24 h
[4] = Staphylococcus aureus, DSM1104, 24 h

Q: How did the “Cell growth (%) at 1.9 µg/ml” value (S. aureus DSM1104; S. aureus, 24 h) turn out when `COc1cc(O)c2c(O)c3c(cc2c1-c1c(OC)cc(O)c2c(O)c4c(cc12)CC(C)OC4=O)CC(C)OC3=O` (stereo not shown) [Pigmentosin A (1), pigmentosin A] was run?
A: 89.5%

Q: What about the “Cell growth (%) at 3.9 µg/ml” value (S. aureus DSM1104; S. aureus, 24 h) of the same molecule?
A: 53.2%

Q: What about the “Cell growth (%) at 7.8 µg/ml” value (S. aureus DSM1104; S. aureus, 24 h) of the same molecule?
A: 32.8%

Q: What about the “Cell growth (%) at 15.6 µg/ml” value (S. aureus DSM1104; S. aureus, 24 h) of the same molecule?
A: 30.3%

Q: What about the “Cell growth (%) at 31.3 µg/ml” value (S. aureus DSM1104; S. aureus, 24 h) of the same molecule?
A: 25.4%

Q: And the “Cell growth (%) at 62.5 µg/ml” value (S. aureus DSM1104; S. aureus, 24 h)?
A: 22.6%

Q: And the “Cell growth (%) at 125 µg/ml” value (S. aureus DSM1104; S. aureus, 24 h)?
A: 23.8%

Q: And the “Cell growth (%) at 250 µg/ml” value (S. aureus DSM1104; S. aureus, 24 h)?
A: 32.5%

Q: And the MBC (S. aureus DSM1104; [3])?
A: higher than 250 µg/ml

Q: What about the MBC (S. aureus DSM1104; [4]) of the same molecule?
A: > 250 µg/mL

Q: And the MIC90 (S. aureus DSM1104; [4])?
A: > 250 µg/mL

Q: What about the “Growth of S. aureus cells relative to growth control” value (S. aureus DSM1104) of the same molecule?
A: more than 80%

Q: And the “Anti-biofilm activity (MIC) PA” value [1]?
A: nor antibiofilm activity

Q: And the “Anti-biofilm activity (MIC) SA” value [2]?
A: 1.9 µg/mL

Q: And the “Anti-biofilm activity (MIC) SA” value ([2]; listed as 1)?
A: active

Q: Which “Cell growth (%) at 1.9 µg/ml” value (S. aureus DSM1104; S. aureus, 24 h) does the source give for `COc1cc(O)c2c(O)c3c(cc2c1-c1c(OC)cc(O)c2c(O)c4c(cc12)CC(CC(C)O)OC4=O)CC(C)OC3=O` (stereo not shown) [Pigmentosin B (2), pigmentosin B] here?
A: 100%

Q: What about the “Cell growth (%) at 3.9 µg/ml” value (S. aureus DSM1104; S. aureus, 24 h) of the same molecule?
A: 94.4%

Q: What about the “Cell growth (%) at 7.8 µg/ml” value (S. aureus DSM1104; S. aureus, 24 h) of the same molecule?
A: 84.9%

Q: And the “Cell growth (%) at 15.6 µg/ml” value (S. aureus DSM1104; S. aureus, 24 h)?
A: 54.3%

Q: And the “Cell growth (%) at 31.3 µg/ml” value (S. aureus DSM1104; S. aureus, 24 h)?
A: 40.9%

Q: What about the “Cell growth (%) at 62.5 µg/ml” value (S. aureus DSM1104; S. aureus, 24 h) of the same molecule?
A: 42.8%

Q: What about the “Cell growth (%) at 125 µg/ml” value (S. aureus DSM1104; S. aureus, 24 h) of the same molecule?
A: 29.9%

Q: What about the “Cell growth (%) at 250 µg/ml” value (S. aureus DSM1104; S. aureus, 24 h) of the same molecule?
A: 26.8%

Q: And the MBC (S. aureus DSM1104; [3])?
A: higher than 250 µg/ml

Q: What about the MIC90 (S. aureus DSM1104; Staphylococcus aureus, DSM1104, S. aureus, lowest concentration with inhibition >= 90% at 24 h) of the same molecule?
A: > 250 µg/mL

Q: What about the MBC (S. aureus DSM1104; Staphylococcus aureus, DSM1104, S. aureus, minimum bactericidal concentration, no visible growth on NA plates, 30 °C, 24 h, read-out: MBC) of the same molecule?
A: > 250 µg/mL

Q: And the “Growth of S. aureus cells relative to growth control” value (S. aureus DSM1104)?
A: more than 80%

Q: And the “Anti-biofilm activity (MIC) PA” value [1]?
A: nor antibiofilm activity

Q: And the “Anti-biofilm activity (MIC) SA” value [2]?
A: 15.6 µg/mL

Q: What about the “Anti-biofilm activity (MIC) SA” value ([2]; listed as 2) of the same molecule?
A: active

Q: What about the “Anti-biofilm activity (MIC) SA” value ([2]; listed as pigmentosin B (2)) of the same molecule?
A: 15.6 µg/mL
